Assay results: ChEMBL document CHEMBL2073784, “Involvement of organic anion transporting polypeptides in the transport of troglitazone sulfate: implications for understanding troglitazone hepatotoxicity” (Drug Metab Dispos, 2004)
Structures can show the parent of a compound that is named as a salt. Values belong to the compound of their own block, whether it stands above or below them.

Key:
[1] = molecular target: T1, Solute carrier organic anion transporter family member 1B1 (Homo sapiens, UniProt Q9Y6L6); assay: TP_TRANSPORTER: uptake in OATP1B1-expressing HEK293 cell; assay type: functional, cell-based
T1 sequence (Q9Y6L6 whole entry): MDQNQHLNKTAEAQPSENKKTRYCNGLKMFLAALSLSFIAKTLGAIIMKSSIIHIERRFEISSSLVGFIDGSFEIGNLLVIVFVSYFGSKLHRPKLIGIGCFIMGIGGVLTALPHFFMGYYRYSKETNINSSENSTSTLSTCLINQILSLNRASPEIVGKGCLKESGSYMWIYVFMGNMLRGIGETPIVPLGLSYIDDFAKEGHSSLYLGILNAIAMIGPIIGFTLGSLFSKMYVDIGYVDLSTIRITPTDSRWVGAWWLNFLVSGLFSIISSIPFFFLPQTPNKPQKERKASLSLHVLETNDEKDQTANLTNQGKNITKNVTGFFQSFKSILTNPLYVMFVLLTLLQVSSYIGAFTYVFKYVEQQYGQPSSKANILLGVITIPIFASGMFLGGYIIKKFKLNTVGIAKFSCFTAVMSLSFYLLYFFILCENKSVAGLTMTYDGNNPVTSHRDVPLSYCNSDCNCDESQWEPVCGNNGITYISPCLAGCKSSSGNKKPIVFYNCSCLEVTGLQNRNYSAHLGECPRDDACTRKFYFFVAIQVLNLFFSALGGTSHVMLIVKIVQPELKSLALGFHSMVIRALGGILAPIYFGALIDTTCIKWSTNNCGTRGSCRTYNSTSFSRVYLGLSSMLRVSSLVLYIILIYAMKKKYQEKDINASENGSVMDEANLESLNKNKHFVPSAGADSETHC

[2] = molecular target: T2, OATP1B1 (SLCO1B1) (Homo sapiens, UniProt Q9Y6L6); assay: TP_TRANSPORTER: inhibition of Estrone-3-sulfate uptake(Estrone-3-sulfate: 9.2nM) in Xenopus laevis oocytes; assay type: functional, cell-based, Oocyte; parameters: scale not given: the % may be the effect or the level left; conditions: probe estrone-3-sulfate
T2 sequence (Q9Y6L6 whole entry): T1 sequence (Q9Y6L6 whole entry)

[3] = molecular target: T2, OATP1B1 (SLCO1B1); assay: TP_TRANSPORTER: inhibition of E1S uptake (irinotecan 10 u M) in OATP1B1-expressing HEK293 cells; assay type: functional, cell-based; parameters: scale not given: the % may be the effect or the level left; conditions: HEK293 cells expressing OATP1B1, probe estrone-3-sulfate (E1S), read-out: Activity
[4] = molecular target: T3, Solute carrier organic anion transporter family member 1B3 (Homo sapiens, UniProt Q9NPD5); assay: TP_TRANSPORTER: uptake of SN-38 at a concentration of 0.09uL/oocyte in Xenopus laevis oocytes; assay type: functional, cell-based
T3 sequence (Q9NPD5 whole entry): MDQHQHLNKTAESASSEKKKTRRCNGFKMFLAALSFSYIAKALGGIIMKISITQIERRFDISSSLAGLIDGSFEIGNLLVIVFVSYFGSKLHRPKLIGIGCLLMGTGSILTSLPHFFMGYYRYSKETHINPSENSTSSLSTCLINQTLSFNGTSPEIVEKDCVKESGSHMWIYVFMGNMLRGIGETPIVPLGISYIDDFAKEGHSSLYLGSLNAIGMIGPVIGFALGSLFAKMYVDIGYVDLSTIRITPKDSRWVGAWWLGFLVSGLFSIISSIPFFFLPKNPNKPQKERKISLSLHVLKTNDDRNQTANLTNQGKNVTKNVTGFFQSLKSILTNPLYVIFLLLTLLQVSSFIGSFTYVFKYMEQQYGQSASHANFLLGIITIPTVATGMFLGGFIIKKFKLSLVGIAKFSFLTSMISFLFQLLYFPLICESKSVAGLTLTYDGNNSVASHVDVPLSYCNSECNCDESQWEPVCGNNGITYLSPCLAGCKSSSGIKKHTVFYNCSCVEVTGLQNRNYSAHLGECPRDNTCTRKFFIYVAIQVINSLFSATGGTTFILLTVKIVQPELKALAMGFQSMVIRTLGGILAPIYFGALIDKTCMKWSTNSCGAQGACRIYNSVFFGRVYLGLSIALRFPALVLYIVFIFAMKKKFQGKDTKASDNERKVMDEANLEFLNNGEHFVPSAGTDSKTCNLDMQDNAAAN

[5] = molecular target: T1, Solute carrier organic anion transporter family member 1B1; assay: TP_TRANSPORTER: uptake of SN-38 at a concentration of 0.16uL/oocyte in Xenopus laevis oocytes; assay type: functional, cell-based
[6] = molecular target: T1, Solute carrier organic anion transporter family member 1B1; assay: TP_TRANSPORTER: uptake in OATP1B1-expressing HEK293 cells; assay type: functional, cell-based
[7] = molecular target: T4, Solute carrier organic anion transporter family member 2B1 (Homo sapiens, UniProt O94956); assay: TP_TRANSPORTER: uptake of SN-38 at a concentration of 0.10uL/oocyte in Xenopus laevis oocytes; assay type: functional, cell-based
T4 sequence (O94956 whole entry): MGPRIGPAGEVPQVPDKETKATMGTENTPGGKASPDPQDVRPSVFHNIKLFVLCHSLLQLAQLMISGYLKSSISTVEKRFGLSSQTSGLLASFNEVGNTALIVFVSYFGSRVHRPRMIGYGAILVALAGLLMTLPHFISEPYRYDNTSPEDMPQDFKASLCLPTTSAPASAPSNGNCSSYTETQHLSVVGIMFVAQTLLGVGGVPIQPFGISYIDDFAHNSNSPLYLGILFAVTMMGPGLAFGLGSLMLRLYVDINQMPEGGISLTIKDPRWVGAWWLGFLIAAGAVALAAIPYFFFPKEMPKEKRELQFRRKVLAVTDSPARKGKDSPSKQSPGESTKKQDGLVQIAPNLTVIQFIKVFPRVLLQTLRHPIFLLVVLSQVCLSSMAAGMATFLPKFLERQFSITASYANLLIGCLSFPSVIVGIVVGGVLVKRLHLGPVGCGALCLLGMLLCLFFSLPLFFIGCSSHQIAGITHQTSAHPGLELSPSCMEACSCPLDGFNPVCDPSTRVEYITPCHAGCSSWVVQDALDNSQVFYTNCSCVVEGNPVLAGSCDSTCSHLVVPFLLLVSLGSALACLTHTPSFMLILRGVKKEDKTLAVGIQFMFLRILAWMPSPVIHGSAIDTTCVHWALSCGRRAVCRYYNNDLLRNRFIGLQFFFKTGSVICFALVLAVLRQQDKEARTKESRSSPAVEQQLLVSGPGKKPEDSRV

[8] = molecular target: T1, Solute carrier organic anion transporter family member 1B1; assay: TP_TRANSPORTER: inhibition of E1S uptake (SN38 10 u M) in OATP1B1-expressing HEK293 cells; assay type: functional, cell-based; parameters: scale not given: the % may be the effect or the level left; conditions: hek293, 10 µM
[9] = molecular target: T5, OATP8 (OATP1B3, SLCO1B3) (Homo sapiens, UniProt Q9NPD5); assay: TP_TRANSPORTER: inhibition of estrone-3-sulfate uptake (Estrone-3-sulfate: 9.2 nM) by Pioglitazone at a concentration of 10uM in OATP8-expressing Xenopus oocytes; assay type: functional, cell-based, Oocyte; conditions: xenopus laevis, Xenopus laevis oocytes expressing OATP8, probe estrone-3-sulfate
T5 sequence (Q9NPD5 whole entry): T3 sequence (Q9NPD5 whole entry)

[10] = molecular target: T6, OATP-C (OATP1B1, SLCO1B1) (Homo sapiens, UniProt Q9Y6L6); assay: TP_TRANSPORTER: inhibition of estrone-3-sulfate uptake (Estrone-3-sulfate: 9.2 nM) by Pioglitazone at a concentration of 10uM in OATP-C-expressing Xenopus oocytes; assay type: functional, cell-based, Oocyte; conditions: xenopus laevis, probe estrone-3-sulfate
T6 sequence (Q9Y6L6 whole entry): T1 sequence (Q9Y6L6 whole entry)

[11] = molecular target: T5, OATP8 (OATP1B3, SLCO1B3); assay: TP_TRANSPORTER: inhibition of estrone-3-sulfate uptake (Estrone-3-sulfate: 9.2 nM) by Quinone Form at a concentration of 10uM in OATP8-expressing Xenopus oocytes; assay type: functional, cell-based, Oocyte; conditions: xenopus laevis, Xenopus laevis oocytes expressing OATP8, probe estrone-3-sulfate
[12] = molecular target: T6, OATP-C (OATP1B1, SLCO1B1); assay: TP_TRANSPORTER: inhibition of estrone-3-sulfate uptake (Estrone-3-sulfate: 9.2 nM) by Quinone Form at a concentration of 10uM in OATP-C-expressing Xenopus oocytes; assay type: functional, cell-based, Oocyte; conditions: xenopus laevis, probe estrone-3-sulfate
[13] = molecular target: T1, Solute carrier organic anion transporter family member 1B1; assay: TP_TRANSPORTER: inhibition of E1S uptake (SN38 G 10 u M) in OATP1B1-expressing HEK293 cells; assay type: functional, cell-based; conditions: hek293, 10 µM
[14] = molecular target: T6, OATP-C (OATP1B1, SLCO1B1); assay: TP_TRANSPORTER: inhibition of estrone-3-sulfate uptake (Estrone-3-sulfate: 9.2 nM) by Troglitazone glucuronide at a concentration of 10uM in OATP-C-expressing Xenopus oocytes; assay type: functional, cell-based, Oocyte; conditions: xenopus laevis, probe estrone-3-sulfate
[15] = molecular target: T5, OATP8 (OATP1B3, SLCO1B3); assay: TP_TRANSPORTER: inhibition of estrone-3-sulfate uptake (Estrone-3-sulfate: 9.2 nM) by Troglitazone sulfate at a concentration of 10uM in OATP8-expressing Xenopus oocytes; assay type: functional, cell-based, Oocyte; conditions: xenopus laevis, Xenopus laevis oocytes expressing OATP8, probe estrone-3-sulfate
[16] = molecular target: T6, OATP-C (OATP1B1, SLCO1B1); assay: TP_TRANSPORTER: inhibition of estrone-3-sulfate uptake (Estrone-3-sulfate: 9.2 nM) by Troglitazone sulfate at a concentration of 10uM in OATP-C-expressing Xenopus oocytes; assay type: functional, cell-based, Oocyte; conditions: xenopus laevis, probe estrone-3-sulfate
[17] = molecular target: T1, Solute carrier organic anion transporter family member 1B1; assay: TP_TRANSPORTER: cell accumulation in OATP-C-expressing Xenopus oocytes; assay type: functional, cell-based; conditions: xenopus laevis, oocyte
[18] = molecular target: T6, OATP-C (OATP1B1, SLCO1B1); assay: TP_TRANSPORTER: inhibition of estrone-3-sulfate uptake (Estrone-3-sulfate: 9.2 nM) by Troglitazone at a concentration of 10uM in OATP-C-expressing Xenopus oocytes; assay type: functional, cell-based, Oocyte; conditions: xenopus laevis, probe estrone-3-sulfate
[19] = molecular target: T6, OATP-C (OATP1B1, SLCO1B1); assay: TP_TRANSPORTER: inhibition of estrone-3-sulfate uptake (Estrone-3-sulfate: 9.2 nM) by Rosiglitazone at a concentration of 10uM in OATP-C-expressing Xenopus oocytes; assay type: functional, cell-based, Oocyte; conditions: xenopus laevis, probe estrone-3-sulfate
[20] = molecular target: T3, Solute carrier organic anion transporter family member 1B3; assay: TP_TRANSPORTER: cell accumulation in OATP8-expressing Xenopus oocytes; assay type: functional, cell-based; conditions: xenopus laevis, oocyte

SMILES: CCc1c2c(nc3ccc(OC(=O)N4CCC(N5CCCCC5)CC4)cc13)-c1cc3c(c(=O)n1C2)COC(=O)[C@]3(O)CC [IRINOTECAN]
- Activity [1]: is not a substrate [-]
- Activity [2]: 60%
- activity at 10 µM [3]: 60%

SMILES: CCc1c2c(nc3ccc(OC[C@@H]4O[C@H](C(=O)O)[C@@H](O)[C@H](O)[C@H]4O)cc13)-c1cc3c(c(=O)n1C2)COC(=O)[C@]3(O)CC
- Activity [1]: is not a substrate [-]
- Activity [2]: 45%
- Activity [13]: is not an inhibitor [-]

SMILES: Cc1c(C)c2c(c(C)c1OS(=O)(=O)O)CCC(C)(COc1ccc(CC3SC(=O)NC3=O)cc1)O2 (stereo not given) [TROGLITAZONE SULFATE]
- inhibition at 10 µM [15]: 20%
- inhibition at 10 µM [16]: 5%
- Activity [17]: substrate []

SMILES: Cc1c(C)c2c(c(C)c1O)CCC(C)(COc1ccc(CC3SC(=O)NC3=O)cc1)O2 (stereo not given) [TROGLITAZONE]
- inhibition at 10 µM [18]: 35%

SMILES: CN(CCOc1ccc(CC2SC(=O)NC2=O)cc1)c1ccccn1 (stereo not given) [ROSIGLITAZONE]
- inhibition at 10 µM [19]: 60%

Results, then the compound that gave them:

- Activity [4]: is not a substrate [-]
- Activity [1]: substrate [+]
- Activity [2]: 85%
- Activity [5]: substrate [+]
- Activity [6]: substrate []
- Activity [7]: is not a substrate [-]
- Activity [8]: 50%
SMILES: CCc1c2c(nc3ccc(O)cc13)-c1cc3c(c(=O)n1C2)COC(=O)[C@]3(O)CC [7-ETHYL-10-HYDROXYCAMPTOTHECIN]

- inhibition at 10 µM [9]: 65%
- inhibition at 10 µM [10]: 70%
SMILES: CCc1ccc(CCOc2ccc(CC3SC(=O)NC3=O)cc2)nc1 (stereo not given) [PIOGLITAZONE]

- inhibition at 10 µM [11]: 60%
- inhibition at 10 µM [12]: 20%
SMILES: CC1=CC(=O)C(C)=C(CCC(C)(C)COc2ccc(CC3SC(=O)NC3=O)cc2)C1=O (stereo not given) [QUINONE FORM]

- inhibition at 10 µM [14]: 30%
SMILES: Cc1c(C)c2c(c(C)c1O[C@@H]1O[C@H](C(=O)O)[C@@H](O)[C@H](O)[C@H]1O)CCC(C)(COc1ccc(CC3SC(=O)NC3=O)cc1)O2 (stereo not given in full) [TROGLITAZONE GLUCURONIDE]

- Activity [20]: substrate []
- Activity [17]: substrate []
SMILES: C[C@]12CC[C@@H]3c4ccc(OS(=O)(=O)O)cc4CC[C@H]3[C@@H]1CCC2=O [ESTRONE SULFURIC ACID]
